Data on three compounds can be found in patent US20250206740A1, “PIPERIDINYL-METHYLPURINE PYRIMIDINES AND RELATED COMPOUNDS AND THEIR USE IN TREATING DISEASES AND CONDITIONS” (K36 Therapeutics, Inc., priority 2022, published 2025).

The target in the assay is recombinant human NSD2 (Homo sapiens (Human), UniProt O96028). In words: NSD2 inhibitory activity, modified RBC HotSpot HMT Assay (radiometric, 3H-SAM, oligonucleosome substrate). Format: biochemical. To be noted: recombinant human NSD2 2 nM, oligonucleosomes from Chicken 0.05 mg/ml, 3H-SAM 1 μM, 1 hour at 30° C. On the procedure: Exemplary compounds were tested for NSD2 inhibitory activity using a modified RBC HotSpot HMT Assay.
Chain of recombinant human NSD2 (O96028 2-1365 limits assumed): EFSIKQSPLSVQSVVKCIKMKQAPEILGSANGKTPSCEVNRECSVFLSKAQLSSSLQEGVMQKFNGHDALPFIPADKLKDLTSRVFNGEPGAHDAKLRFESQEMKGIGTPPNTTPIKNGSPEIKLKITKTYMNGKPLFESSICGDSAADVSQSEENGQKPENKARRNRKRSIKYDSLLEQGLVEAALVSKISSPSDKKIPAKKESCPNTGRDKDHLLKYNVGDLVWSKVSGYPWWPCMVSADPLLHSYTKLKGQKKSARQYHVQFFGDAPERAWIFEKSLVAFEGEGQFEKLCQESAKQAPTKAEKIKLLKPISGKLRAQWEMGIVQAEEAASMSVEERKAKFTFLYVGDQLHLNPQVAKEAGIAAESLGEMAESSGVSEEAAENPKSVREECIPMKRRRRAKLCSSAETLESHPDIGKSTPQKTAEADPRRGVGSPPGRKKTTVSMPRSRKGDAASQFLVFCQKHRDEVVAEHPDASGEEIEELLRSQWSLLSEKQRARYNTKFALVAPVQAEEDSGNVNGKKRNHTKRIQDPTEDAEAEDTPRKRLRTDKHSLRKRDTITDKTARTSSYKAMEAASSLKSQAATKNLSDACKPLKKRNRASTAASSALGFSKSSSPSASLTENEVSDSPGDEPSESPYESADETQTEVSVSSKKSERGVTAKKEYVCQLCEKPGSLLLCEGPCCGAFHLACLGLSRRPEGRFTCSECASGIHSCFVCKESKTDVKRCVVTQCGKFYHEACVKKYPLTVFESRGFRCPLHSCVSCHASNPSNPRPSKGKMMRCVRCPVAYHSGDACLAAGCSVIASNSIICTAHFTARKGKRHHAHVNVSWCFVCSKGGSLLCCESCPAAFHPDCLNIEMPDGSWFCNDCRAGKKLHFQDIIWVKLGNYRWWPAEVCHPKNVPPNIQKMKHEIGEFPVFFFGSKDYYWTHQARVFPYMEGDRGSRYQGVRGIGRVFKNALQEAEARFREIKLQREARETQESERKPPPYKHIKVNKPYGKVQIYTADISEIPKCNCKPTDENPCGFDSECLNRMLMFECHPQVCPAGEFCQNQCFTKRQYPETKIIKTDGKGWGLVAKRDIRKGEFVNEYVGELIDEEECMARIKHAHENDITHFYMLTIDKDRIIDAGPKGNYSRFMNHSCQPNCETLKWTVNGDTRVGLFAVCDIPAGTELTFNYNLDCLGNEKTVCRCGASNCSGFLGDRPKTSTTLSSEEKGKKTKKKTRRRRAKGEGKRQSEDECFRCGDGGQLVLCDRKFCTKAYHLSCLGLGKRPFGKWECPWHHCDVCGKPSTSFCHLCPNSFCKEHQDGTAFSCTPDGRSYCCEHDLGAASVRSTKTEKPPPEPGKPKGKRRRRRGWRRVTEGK
A reaction mixture was prepared by adding oligonucleosomes from Chicken (0.05 mg/ml) to freshly prepared reaction buffer containing 50 mM Tris-HCl (pH 8.5), 50 mM NaCl, 5 mM MgCl2, 0.01% Brij35, 1 mM DTT, and 1% DMSO followed by the addition of recombinant human NSD2, (amino acids 2-end) with N-terminal His tag (2 nM; GenBank Accession No. NM_001042424; MW=155.5 kDa; expressed in Sf9 insect cells) and gentle mixing. The test compounds were diluted in DMSO, added to the reaction mixture in nanoliter amounts by using Acoustic Technology (Echo 550, LabCyte Inc. Sunnyvale, CA) and incubated for 20 minutes at room temperature. The reaction was initiated by the addition of S-Adenosyl-L-[methyl-^3H] methionine (3H-SAM; 1 μM), and the mixture was incubated for 1 hour at 30° C. The reaction mixture was delivered to filter paper and the methylated substrate was quantified by scintillation counting. Data analysis was performed using Excel and GraphPad Prism software for IC50 curve fits. For additional information on the histone methyltransferase assay, see, for example, Horiuchi K Y, et al., “Assay Development for Histone Methyltransferases,” Assay Drug Dev Technol. 2013 May; 11 (4): 227-36.
For `COc1cc(F)c(-c2ncc(N3CCC[C@](N)([C@H](O)C(F)F)C3)c(Cn3cnc4c(N)ncnc43)n2)cc1F` [Compound I-1, (S)-1-((R)-3-amino-1-(4-((6-amino-9H-purin-9-yl)methyl)-2-(2,5-difluoro-4-methoxyphenyl)pyrimidin-5-yl)piperidin-3-yl)-2,2-difluoroethan-1-ol], the IC50 lay in the range of 100 to 1000 nM. The same measure for `COc1cc(F)c(-c2cc(Cn3cnc4c(N)ncnc43)c(N3CCC[C@](N)([C@H](O)C(F)F)C3)nn2)cc1F` [Compound I-6, (S)-1-((R)-3-amino-1-(4-((6-amino-9H-purin-9-yl)methyl)-6-(2,5-difluoro-4-methoxyphenyl)pyridazin-3-yl)piperidin-3-yl)-2,2-difluoroethan-1-ol]: 100 to 1000 nM; for `COc1cc(F)c(-c2nc(Cn3cnc4c(N)ncnc43)c(N3CCC[C@@](N)([C@H](O)C(F)F)C3)s2)cc1F` [II-2]: 10 to 100 nM.

For orientation: IC50 means the concentration that inhibits the measured activity by half.
